Molecules are shown by their SMILES.

KATP-channels on pancreatic beta-cells, sequence (Q09428 whole entry): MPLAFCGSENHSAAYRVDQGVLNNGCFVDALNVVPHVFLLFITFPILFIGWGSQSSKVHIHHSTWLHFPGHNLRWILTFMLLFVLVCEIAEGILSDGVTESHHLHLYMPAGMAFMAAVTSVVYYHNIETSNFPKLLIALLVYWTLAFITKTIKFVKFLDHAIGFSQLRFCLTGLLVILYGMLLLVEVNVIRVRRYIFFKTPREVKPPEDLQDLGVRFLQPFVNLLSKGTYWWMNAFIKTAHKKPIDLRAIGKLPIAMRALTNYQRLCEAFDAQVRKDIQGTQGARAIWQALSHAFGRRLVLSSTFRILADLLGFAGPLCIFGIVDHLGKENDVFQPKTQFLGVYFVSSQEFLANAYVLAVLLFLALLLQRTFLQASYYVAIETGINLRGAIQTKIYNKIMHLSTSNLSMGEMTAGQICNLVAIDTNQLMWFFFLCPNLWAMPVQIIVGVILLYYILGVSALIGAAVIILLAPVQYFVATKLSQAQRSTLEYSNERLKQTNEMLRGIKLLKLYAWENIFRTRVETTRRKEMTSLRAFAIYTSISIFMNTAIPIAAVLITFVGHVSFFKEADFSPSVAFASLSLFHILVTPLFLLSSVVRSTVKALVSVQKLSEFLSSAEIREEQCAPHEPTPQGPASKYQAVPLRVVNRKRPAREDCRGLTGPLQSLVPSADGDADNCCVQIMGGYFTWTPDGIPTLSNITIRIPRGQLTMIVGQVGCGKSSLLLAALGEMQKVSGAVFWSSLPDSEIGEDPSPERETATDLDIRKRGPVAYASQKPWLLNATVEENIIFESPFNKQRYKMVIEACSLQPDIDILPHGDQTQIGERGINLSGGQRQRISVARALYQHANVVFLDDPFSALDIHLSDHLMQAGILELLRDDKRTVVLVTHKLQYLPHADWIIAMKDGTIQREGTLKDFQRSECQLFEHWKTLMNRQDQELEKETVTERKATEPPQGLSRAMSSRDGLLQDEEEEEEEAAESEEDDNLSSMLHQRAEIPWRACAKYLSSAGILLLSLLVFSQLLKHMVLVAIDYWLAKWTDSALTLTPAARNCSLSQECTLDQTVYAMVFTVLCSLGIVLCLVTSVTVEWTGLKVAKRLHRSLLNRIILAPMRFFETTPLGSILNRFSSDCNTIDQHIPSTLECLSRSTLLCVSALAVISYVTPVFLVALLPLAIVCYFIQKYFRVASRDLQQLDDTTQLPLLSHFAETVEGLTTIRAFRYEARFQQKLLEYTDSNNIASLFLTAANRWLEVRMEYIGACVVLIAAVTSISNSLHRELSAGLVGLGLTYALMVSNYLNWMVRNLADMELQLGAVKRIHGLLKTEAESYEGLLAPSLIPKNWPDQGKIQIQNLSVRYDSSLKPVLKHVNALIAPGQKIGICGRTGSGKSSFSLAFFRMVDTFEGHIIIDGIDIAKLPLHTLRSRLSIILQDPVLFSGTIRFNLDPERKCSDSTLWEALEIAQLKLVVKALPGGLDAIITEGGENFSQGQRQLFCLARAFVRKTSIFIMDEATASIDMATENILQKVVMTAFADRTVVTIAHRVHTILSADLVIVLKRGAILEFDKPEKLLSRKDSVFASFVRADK
KATP-channels on pancreatic beta-cells, sequence (Q14654 whole entry partner): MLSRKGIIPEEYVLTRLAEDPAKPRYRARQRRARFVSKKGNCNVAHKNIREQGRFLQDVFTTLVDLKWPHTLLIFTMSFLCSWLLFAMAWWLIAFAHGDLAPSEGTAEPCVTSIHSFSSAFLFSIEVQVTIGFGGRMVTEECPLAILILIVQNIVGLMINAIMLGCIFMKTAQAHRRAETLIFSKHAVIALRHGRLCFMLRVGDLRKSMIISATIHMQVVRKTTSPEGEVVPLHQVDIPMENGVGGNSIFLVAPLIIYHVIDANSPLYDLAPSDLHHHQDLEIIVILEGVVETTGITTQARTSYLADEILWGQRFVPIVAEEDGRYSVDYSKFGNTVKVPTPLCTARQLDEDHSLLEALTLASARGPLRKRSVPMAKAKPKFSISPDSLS

One data set has as its target KATP-channels on pancreatic beta-cells (Homo sapiens, UniProt Q09428). Conditions: by activation of KATP-channels; cited from earlier work.
For `CC1=Nc2ccc(Cl)cc2S(=O)(=O)N1` [diazoxide, 7-chloro-3-methyl-2H-1,2,4-benzothiadiazine 1,1-dioxide], the insulin release result is reported as “inhibit insulin release”.

For the next data set, the system named is obese zucker rats. To be noted: cited from earlier work.
`CC1=Nc2ccc(Cl)cc2S(=O)(=O)N1` [diazoxide, 7-chloro-3-methyl-2H-1,2,4-benzothiadiazine 1,1-dioxide]: the glucose tolerance entry is “improve glucose tolerance”, the insulin receptor binding entry was “increase insulin receptor binding”, the insulin secretion result was “decrease insulin secretion” and the weight gain result is given as “decrease weight gain”.

A further data set relates to BB-rats. To be noted: cited from earlier work.
With `CC1=Nc2ccc(Cl)cc2S(=O)(=O)N1` [diazoxide, 7-chloro-3-methyl-2H-1,2,4-benzothiadiazine 1,1-dioxide], the onset of diabetes result is recorded as “delay the onset of diabetes”.

Tested on in the next data set: not given
Conditions: not given
As to `CC(NC(Nc1cc(C(F)(F)F)cc(C(F)(F)F)c1)=C(C#N)S(=O)(=O)c1ccc(Cl)cc1)C(C)(C)C` (centres unmarked) [Example 1, 3-[3,5-bis(trifluoromethyl)phenylamino]-2-(4-chlorophenylsulfonyl)-3-(1,2,2-trimethylpropylamino)-2-propenenitrile], the melting point – broadly, the temperature of the solid-liquid transition – lay in the range of 155.5 to 158.5 °C.
Same read-out and setting: the figure for `N#CC(=C(Nc1cc(C(F)(F)F)cc(C(F)(F)F)c1)NC1CCCC1)S(=O)(=O)c1ccc(Cl)cc1` [Example 2, 3-[3,5-Bis(trifluoromethyl)phenylamino]-2-(4-chlorophenylsulfonyl)-3-cyclopentylamino2-propenenitrile] is 199 to 200 °C; for `CC(C)NC(Nc1cc(C(F)(F)F)cc(C(F)(F)F)c1)=C(C#N)S(=O)(=O)c1ccc(Cl)cc1` [Example 3, 3-[3,5-Bis(trifluoromethyl)phenylamino]-2-(4-chlorophenylsulfonyl)-3-isopropylamino-2-propenenitrile] it is 197 to 198.5 °C; for `N#CC(=C(Nc1cc(C(F)(F)F)cc(C(F)(F)F)c1)NC1CCC1)S(=O)(=O)c1ccc(Cl)cc1` [Example 4, 3-[3,5-Bis(trifluoromethyl)phenylamino]-2-(4-chlorophenylsulfonyl)-3-cyclobutylamino-2-propenenitrile] it is 190.5 to 193 °C.
On the same count and under the same terms, to `CCCNC(Nc1cc(C(F)(F)F)cc(C(F)(F)F)c1)=C(C#N)S(=O)(=O)c1ccc(Cl)cc1` [Example 5, 3-[3,5-Bis(trifluoromethyl)phenylamino]-2-(4-chlorophenylsulfonyl)-3-propylamino2-propenenitrile] belongs 196.5 to 198.5 °C; to `CC(NC(Nc1cc(Cl)cc(Cl)c1)=C(C#N)S(=O)(=O)c1ccc(Cl)cc1)C(C)(C)C` (centres unmarked) [Example 7, 2-(4-Chlorophenylsulfonyl)-3-(3,5-dichlorophenylamino)-3-(1,2,2-trimethylpropylamino)-2-propenenitrile], 163 to 169 °C; to `CC(NC(Nc1cc(C(F)(F)F)cc(C(F)(F)F)c1)=C(C#N)S(C)(=O)=O)C(C)(C)C` (centres unmarked) [Example 9, 3-(3,5-Bis(trifluoromethyl)phenylamino)-2-methylsulfonyl-3-(1,2,2-trimethylpropylamino)-propenenitrile], 184.5 to 188.5 °C.
The same measure, in the same setting: to `COc1cc(NC(NC(C)C(C)(C)C)=C(C#N)S(=O)(=O)c2ccc(Cl)cc2)cc(OC)c1` (centres unmarked) [Example 10, 2-(4-Chlorophenylsulfonyl)-3-(3,5-dimethoxyphenylamino)-3-(1,2,2-trimethylpropylamino)-2-propenenitrile] belongs 177.5 to 179 °C; to `CC(NC(=C(C#N)S(=O)(=O)c1ccc(Cl)cc1)N(C)c1cc(C(F)(F)F)cc(C(F)(F)F)c1)C(C)(C)C` (centres unmarked) [Example 11, 3-[N-(3,5-bis(trifluoromethyl)phenyl)-N-methylamino]-2-(4-chlorophenylsulfonyl)-3-(1,2,2-trimethylpropylamino)-2-propenenitrile], 151.5 to 154 °C; to `CCC(C)(C)NC(Nc1cc(C(F)(F)F)cc(C(F)(F)F)c1)=C(C#N)S(=O)(=O)c1ccc(Cl)cc1` [Example 17, 3-[3,5-Bis(trifluoromethyl)phenylamino]-2-(4-chlorophenylsulfonyl)-3-(1,1-dimethylpropylamino)-2-propenenitrile], 205 to 207 °C.
`C[C@@H](NC(Nc1cc(C(F)(F)F)cc(C(F)(F)F)c1)=C(C#N)S(=O)(=O)c1ccc(Cl)cc1)C(C)(C)C` [Example 19, (R)-3-[3,5-bis(trifluoromethyl)phenylamino]-2-(4-chlorophenylsulfonyl)-3-(1,2,2-trimethylpropylamino)-2-propenenitrile] registered a melting point of 164 to 165 °C.
`CC(C)NC(Nc1cc(C(F)(F)F)cc(C(F)(F)F)c1)=C(C#N)S(C)(=O)=O` [Example 20, 3-(3,5-Bis(trifluoromethyl)phenylamino)-3-isopropylamino-2-methylsulfonyl-propenenitrile] came in with a melting point of 188.5 to 191 °C.
On the same count and under the same terms, to `C[C@@H](NC(Nc1cc(C(F)(F)F)cc(C(F)(F)F)c1)=C(C#N)S(C)(=O)=O)C(C)(C)C` [Example 21, (R)-3-[3,5-bis(trifluoromethyl)phenylamino]-2-methanesulfonyl-3-(1,2,2-trimethylpropylamino)-2-propenenitrile] belongs 181 to 181.5 °C.
The same measure, in the same setting: to `C[C@H](NC(Nc1cc(C(F)(F)F)cc(C(F)(F)F)c1)=C(C#N)S(C)(=O)=O)C(C)(C)C` [Example 22, (S)-3-[3,5-bis(trifluoromethyl)phenylamino]-2-methanesulfonyl-3-(1,2,2-trimethylpropylamino)-2-propenenitrile] belongs 180.5 to 181.5 °C.
The same measure, in the same setting: to `CCC(C)(C)NC(Nc1cc(OC)cc(OC)c1)=C(C#N)S(=O)(=O)c1ccc(Cl)cc1` [Example 23, 2-(4-Chlorophenylsulfonyl)-3-(3,5-dimethoxyphenylamino)-3-(1,1-dimethylpropylamino)-2-propenenitrile] belongs 189 to 190 °C; to `COc1cc(NC(NC2CCC2)=C(C#N)S(=O)(=O)c2ccc(Cl)cc2)cc(OC)c1` [Example 24, 2-(4-Chlorophenylsulfonyl)-3-(3,5-dimethoxyphenylamino)3cyclobutylamino-2-propenenitrile], 163.5 to 164.5 °C.
`CCC(C)(C)NC(Nc1ccc2c(c1)OCO2)=C(C#N)S(=O)(=O)c1ccc(Cl)cc1` [Example 27, 3-(Benzo[1,3]dioxol-5-ylamino)-3-(1,1-dimethyl-propylamino)-2-(4-chloro-phenylsulfonyl)-propenenitrile]: the melting point lay within 169 to 170 °C.
Still for that read-out and setting: to `N#CC(=C(Nc1ccc2c(c1)OCO2)NC1CCC1)S(=O)(=O)c1ccc(Cl)cc1` [Example 28, 3-(Benzo[1,3]dioxol-5-ylamino)-3-cyclobutylamino-2-(4-chloro-phenylsulfonyl)-propenenitrile] belongs 189.5 °C.
For the molecule `CCC(C)NC(Nc1cc(Cl)cc(Cl)c1)=C(C#N)S(=O)(=O)c1ccc(Cl)cc1` (centres unmarked) [Example 31, 3-sec-Butylamino-2-(4-chlorophenylsulfonyl)-3-(3,5-dichlorophenylamino)-2-propenenitrile], the melting point was 150 to 152 °C.
Take `CC(NC(Nc1cc(F)cc(C(F)(F)F)c1)=C(C#N)S(C)(=O)=O)C(C)(C)C` (centres unmarked) [Example 33, 3-(3-Fluoro-5trifluoromethyl-phenylamino)-2-methylsulfonyl-3-(1,2,2-trimethylpropylamino)-propenenitrile]: the melting point was 183 to 185 °C.
For `CC(NC(Nc1ccc(Cl)cc1)=C(C#N)S(C)(=O)=O)C(C)(C)C` (centres unmarked) [Example 34, 3-(4-Chlorophenylamino)-2-methylsulfonyl-3-(1,2,2-trimethylpropylamino)-acrylonitrile], the melting point lay in the range of 160.5 to 161.5 °C.
For the molecule `CCC(C)(C)NC(Nc1ccc2ncsc2c1)=C(C#N)S(C)(=O)=O` [Example 35, 3-(Benzothiazol-6-ylamino)-3-(1,1-dimethyl-propylamino)-2-methylsulfonyl-propenenitrile], the melting point lay in the range of 112 to 114 °C.
The same measure, in the same setting: to `CCC(C)(C)NC(Nc1ccc2c(c1)OCO2)=C(C#N)C(=O)C(C)(C)C` [Example 36, 3-(Benzo[1,3]dioxol-5-ylamino)-2-(2,2-dimethyl-propionyl)-3-(1,1-dimethyl-propylamino)-propenenitrile] belongs 161 to 165 °C.

Source of the values: patent publication US6365609B1, “Substituted 3,3-diamino-2-propenenitriles, their preparation and use” (Novo Nordisk A/S, priority 1998, dated 2002).
